Reference: PMC9558053, “Development of a novel high-throughput screen for the identification of new inhibitors of protein S-acylation” (The Journal of Biological Chemistry, 2022)

Biological target: T1, human zDHHC2 (Homo sapiens, UniProt Q9UIJ5)
T1 construct: expressed in transfected cells; host or cells: HEK293T
T1 sequence (Q9UIJ5 1-367): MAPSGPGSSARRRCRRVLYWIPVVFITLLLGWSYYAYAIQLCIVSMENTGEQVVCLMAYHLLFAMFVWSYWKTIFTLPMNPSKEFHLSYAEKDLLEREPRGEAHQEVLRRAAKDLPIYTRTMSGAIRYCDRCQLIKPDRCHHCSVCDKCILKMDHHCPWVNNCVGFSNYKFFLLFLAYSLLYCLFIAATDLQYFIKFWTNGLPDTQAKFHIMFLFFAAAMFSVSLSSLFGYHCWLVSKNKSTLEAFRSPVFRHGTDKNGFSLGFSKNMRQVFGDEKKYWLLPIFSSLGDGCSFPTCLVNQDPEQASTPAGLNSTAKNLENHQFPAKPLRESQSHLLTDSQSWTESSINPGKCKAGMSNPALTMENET
Assay: S-acylation (autoacylation) of HA-zDHHC2 in HEK293T cells, click chemistry
Type: cell-based
Conditions: resynthesized UoS compounds, 25 μM, p < 0.001 vs DMSO
Procedure: Figure 8 Activity of TTZ-1 (UoS) and TTZ-2 (UoS) against human zDHHC2 autoacylation expressed in mammalian cells. HEK293T cells were transfected with either the control plasmid pEF-BOS-HA (pEF) or a plasmid encoding HA-tagged human zDHHC2 (zD2) for 24 h. Cells were then preincubated for 4 h with UoS compounds TTZ-1 (UoS) (A) or TTZ-2 (UoS) (B) (25 μM final) or DMSO control before metabolic labeling with 100 μM C16:0-azide for 4 h. Cells were lysed, and proteins having incorporated C16:0-azide were labeled by click chemistry with an alkyne-IR800 dye. Protein samples were then resolved by SDS-PAGE, and the gel was scanned for the detection of the click chemistry signal in the infrared-800 channel. […] Two independent experiments were performed in sextuplicate, and the quantification data were gathered on the graphs below each set of membranes. […]
HEK293T cells were plated on poly-D-lysine–coated 24-well plates (catalog no.: 356413; Corning BioCoat, VWR) and transfected with 2.4 μg of pEF-zDHHC2 plasmid (or the control empty plasmid pEF-BOS-HA) for the measurement of zDHHC2 autoacylation and 4.8 μl of Lipofectamine 2000 (Invitrogen). […] Membranes were first stained with Revert 700 total protein stain kit (catalog no.: 926-11016; LI-COR), imaged, destained, and then analyzed by immunoblotting. Signals were quantified with ImageStudio software (LI-COR). […]

CCCCCCCOc1ccc(C(=O)Nc2cccc3c2OC(c2nnn[nH]2)CN3)cc1 (centres unmarked) [TTZ-1, N-(2-(1H-Tetrazol-5-yl)-3,4-dihydro-2H-benzo[b][1,4]oxazin-8-yl)-4-(heptyloxy)benzamide]
S-acylation of HA-zDHHC2 in HEK293T cells: significantly reduced

O=C(Nc1cccc2c1OC(c1nnn[nH]1)CN2)c1ccc(OCCCCc2ccccc2)cc1 (centres unmarked) [TTZ-2, N-(2-(1H-Tetrazol-5-yl)-3,4-dihydro-2H-benzo[b][1,4]oxazin-8-yl)-4-(4-phenylbutoxy)benzamide]
S-acylation of HA-zDHHC2 in HEK293T cells: significantly reduced
